# Patent US5679671A, “Amino acid derivative” (Eisai Co., Ltd., priority 1993, dated 1997)
# pIC50: −log10 of the molar value.
# Assays:
# ACE [1] = biological target: T1, ACE (Rattus norvegicus, UniProt P47820); assay: ACE inhibition activity using rat lung (Experiment B-2); assay type: biochemical; conditions: rat lung membrane fraction, borate buffer
# T1 construct: membrane fraction prepared from rat lung; from tissue; host or cells: rat lung, membrane fraction (method of Wu-Wong et al.)
# T1 sequence (P47820 36-1313): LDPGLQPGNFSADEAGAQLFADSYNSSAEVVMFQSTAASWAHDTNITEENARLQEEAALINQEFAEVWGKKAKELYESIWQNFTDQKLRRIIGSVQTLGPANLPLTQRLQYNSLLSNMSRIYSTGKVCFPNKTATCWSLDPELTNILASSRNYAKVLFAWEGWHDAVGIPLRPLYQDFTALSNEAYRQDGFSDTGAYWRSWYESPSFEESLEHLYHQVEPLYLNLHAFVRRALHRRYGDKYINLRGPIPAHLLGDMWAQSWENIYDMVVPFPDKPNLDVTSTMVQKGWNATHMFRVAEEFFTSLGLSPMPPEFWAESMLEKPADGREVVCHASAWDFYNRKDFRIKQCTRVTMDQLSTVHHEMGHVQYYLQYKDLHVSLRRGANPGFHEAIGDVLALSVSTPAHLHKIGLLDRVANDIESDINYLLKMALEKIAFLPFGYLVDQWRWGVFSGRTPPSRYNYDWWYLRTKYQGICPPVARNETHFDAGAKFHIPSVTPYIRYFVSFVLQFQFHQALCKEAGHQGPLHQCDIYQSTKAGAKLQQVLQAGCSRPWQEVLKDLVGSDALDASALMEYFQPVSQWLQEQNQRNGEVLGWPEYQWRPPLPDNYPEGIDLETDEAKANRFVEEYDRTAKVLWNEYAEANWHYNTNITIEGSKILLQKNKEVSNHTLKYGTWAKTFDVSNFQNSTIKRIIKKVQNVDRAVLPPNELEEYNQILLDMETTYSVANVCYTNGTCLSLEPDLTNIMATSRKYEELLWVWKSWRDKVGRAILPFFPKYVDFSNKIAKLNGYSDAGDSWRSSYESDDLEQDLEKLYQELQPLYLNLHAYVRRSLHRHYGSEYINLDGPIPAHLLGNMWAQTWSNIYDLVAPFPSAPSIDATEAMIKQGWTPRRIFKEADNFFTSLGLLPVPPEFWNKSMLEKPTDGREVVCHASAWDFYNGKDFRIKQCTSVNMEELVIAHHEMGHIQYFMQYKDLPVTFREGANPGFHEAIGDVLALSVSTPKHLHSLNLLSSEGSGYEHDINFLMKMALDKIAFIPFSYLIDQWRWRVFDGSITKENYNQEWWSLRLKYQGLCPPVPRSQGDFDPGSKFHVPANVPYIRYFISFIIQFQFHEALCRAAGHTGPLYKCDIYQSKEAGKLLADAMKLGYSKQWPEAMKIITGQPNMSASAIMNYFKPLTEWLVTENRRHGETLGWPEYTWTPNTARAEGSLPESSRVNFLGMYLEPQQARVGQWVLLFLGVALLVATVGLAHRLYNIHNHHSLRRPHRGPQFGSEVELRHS
# Procedure: The ACE inhibition activity was determined by using a membrane fraction prepared from rat lung in accordance with the method of Wu-Wong et al. (Characterization of Endthelin Converting Enzyme in Rat Lung., Junshyum R. Wu-Wong, Gerald, P. Budzik, Edward M. Devine and Terry J. Opgenorth, Biochem. Biophys. Res. Commun., 1990, 171, 1291-1296.).
# The ACE activity was determined with the use of a modification (modified to a borate buffer, p11 8.3) of the method of Cushman and Cheung (Spectrophotometric Assay and Properties of the Angiotensin-Converting Enzyme of Rabbit Lung., Cushman, D. W. and Cheung H. S., 1971, 20, […].).
# In the presence of ACE, the hippurate liberated from hippuryl-histidine-leucine (Hippuryl-His-Leu (PeptideInstitute Inc., Japan)) was extracted with ethyl acetate and then the absorbance was measured at a wavelength of 228 nm.
# (§1) With respect to the ACE inhibition activity, the inhibitor was added to the reaction system as described above in such a manner as to give the final concentrations of 1, 3, 10, 30, 100, 300 and 1000 nM, an inhibition curve was prepared, and then the concentration at which 50% inhibition was achieved was taken as IC50.
# NEP [2] = biological target: T2, NEP (Rattus norvegicus, UniProt P07861); assay: NEP inhibition activity using rat renal cortex (Experiment B-1); assay type: biochemical; parameters: membrane fraction prepared from rat renal cortex; from tissue; host or cells: rat renal cortex, membrane fraction (method of Booth and Kenny); conditions: rat renal cortex membrane fraction
# T2 sequence (P07861 1-750): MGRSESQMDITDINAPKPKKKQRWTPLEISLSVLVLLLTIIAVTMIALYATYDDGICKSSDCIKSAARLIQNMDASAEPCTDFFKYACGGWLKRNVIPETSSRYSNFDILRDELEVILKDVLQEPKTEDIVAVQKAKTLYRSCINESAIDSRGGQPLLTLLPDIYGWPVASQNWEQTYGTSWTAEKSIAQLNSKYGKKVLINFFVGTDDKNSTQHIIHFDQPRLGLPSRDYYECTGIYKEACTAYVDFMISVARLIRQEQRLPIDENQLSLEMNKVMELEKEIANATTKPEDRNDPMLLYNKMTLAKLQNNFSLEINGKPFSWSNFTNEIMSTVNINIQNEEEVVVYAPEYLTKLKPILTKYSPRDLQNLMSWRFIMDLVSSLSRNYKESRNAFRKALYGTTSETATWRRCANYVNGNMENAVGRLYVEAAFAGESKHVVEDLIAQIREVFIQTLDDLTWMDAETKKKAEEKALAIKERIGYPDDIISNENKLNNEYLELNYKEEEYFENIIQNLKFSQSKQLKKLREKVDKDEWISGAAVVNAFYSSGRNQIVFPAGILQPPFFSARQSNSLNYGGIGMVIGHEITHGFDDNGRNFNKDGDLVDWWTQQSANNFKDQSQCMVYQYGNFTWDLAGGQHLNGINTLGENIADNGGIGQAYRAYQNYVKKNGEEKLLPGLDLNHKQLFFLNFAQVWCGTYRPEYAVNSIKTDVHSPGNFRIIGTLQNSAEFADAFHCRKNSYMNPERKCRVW
# Procedure: The NEP activity was determined by using a membrane fraction prepared from rat renal cortex in accordance with the method of Booth and Kenay (A Rapid Metod for the Purificaton of Microvilli from Rabbit Kidney., Andrew G. Booth and A. John Kenny, Biochem j., 1974, 142, 575-581.).
# The NEP activity was determined by the following manner in accordance with the method of Orlowsky and Wilk (Purification and Specificity of a Membrane-Bound Metalloendpeptldase from Bovine Pituitaries., Marian Orlowsky and Shrwin Wilk, Biochemistry, 1981, 20, 4942-4950.).
# (§2) As a substrate, benzoyl-glycine-arginine-arginine-2-naphthylamide (benzoyl-Gly-Arg-Arg-2-naphthylamide (Nova Biochem, Switzerland)) was used. In the presence of an NEP enzyme preparation and excessive leucine aminopeptidase (sigma chemical Co., U.S.A.), the liberated naphthylamine was made to undergo color development with first garnet (Sigma chemical Co., U.S.A.), followed by the measurement of the absorbance at a wavelength of 540 nm.
# as §1, with “NEP” for “ACE”
# ACE [3] = biological target: T1, ACE; assay: ACE inhibition activity (Experiment E-1); assay type: biochemical; conditions: rat lung membrane fraction, pH 8.3
# Procedure: As a source of the enzyme ACE, a membrane fraction prepared from rat lung in accordance with the method of Wu-Wong et al. (Characterization of Endthelin Converting Enzyme in Rat Lung., Jinshyum R. Wu-Wong, Gerald, P. Budzik, Edward M. Devine and Terry J. Opgenorth, Biochem. Biophys. Res. Commun., 1990, 171, 1291-1296.) was used. The ACE activity was determined with the use of a modification (modified to a borate buffer pH 8.3) of the method of Cushman and Cheung (Spectrophotometric Assay and Properties of the Angiotensin-Converting Enzyme of Rabbit Lung., Cushman D. W. and Cheung H. S., 1971, 20, 1637-1648.). Now the procedure will be briefly described.
# In the presence of ACE, the hippurate liberated from hippuryl-histidyl-leucine (Hippuryl-His-Leu (PeptideInstitute Inc., Japan)) was extracted with ethyl acetate and then the absorbance was measured at a wavelength of 228 nm.
# (§3) To determine the NEP inhibition activity and the ACE inhibition activity, the inhibitor was added to the assay systems of both enzyme activities as described above in such a manner as to give the final concentrations of 1, 3, 10, 30, 100, […] and 1000 nM and inhibition curves were prepared. Then the concentration at which 50% inhibition was achieved was taken as IC50.
# in vivo = conditions: rat, in vivo; for bioavailability: po
# Text: Then changes in the blood level of each medicament were monitored with the lapse of time by using liquid chromatography.
# NEP [4] = biological target: T2, NEP; assay: NEP inhibition activity (Experiment E-1); assay type: biochemical; parameters: membrane fraction prepared from rat renal cortex; from tissue; host or cells: rat renal cortex, membrane fraction (method of Booth and Kenny); conditions: rat renal cortex membrane fraction
# Procedure: As a source of the enzyme NEP, a membrane fraction prepared from rat renal cortex in accordance with the method of Booth and Kenny (A Rapid Method for the Purification of Microvilli from Rabbit Kidney., Andrew G. Booth and A. John Kenny, Biochem. j., 1974, 142,575-581.) was employed. The NEP activity was determined in accordance with the method of Orlowsky and Wilk (Purification and Specificity of a Membrane-Bound Metalloendpeptidase from Bovine Pituitaries., Marian Orlowsky and Shrwin Wilk, Biochemistry, 1981, 20, 4942-4950.). Now the procedure will be briefly described.
# as §2, with “benzoyl-glycyl-arginyl-arginyl-2-naphthylamide (benzoyl-Gly-Arg-Arg-2 naphthylamide” for “benzoyl-glycine-arginine-arginine-2-naphthylamide (benzoyl-Gly-Arg-Arg-2-naphthylamide”
# as §3
Compound,pIC50 (ACE [1]),pIC50 (NEP [2]),pIC50 (ACE [3]),oral absorbability (in vivo),bioavailability (in vivo; 10 mg/kg),bioavailability (in vivo; 30 mg/kg),pIC50 (NEP [4])
"CCOC(=O)C1CCCC2c3sccc3CC(NC(=O)[C@H](Cc3ccccc3)SC(C)=O)C(=O)N12 (single isomer, unassigned) [Example B-7]",7.22,7.26,–,–,–,–,–
"O=C(N[C@H]1Cc2sccc2[C@H]2CCC[C@@H](C(=O)O)N2C1=O)[C@@H](S)Cc1ccccc1 [Example B-3, [5S-[5α,8α(R*),11αβ]]-5-[[(S)-2-Mercapto-1-oxo-3-phenylpropyl]amino]-6-oxo-4,5,6,8,9,10,11,11a-octahydropyrido[1,2-a]thieno[3,2c]azepine-8-carboxylic acid]",7.80,8.07,–,–,–,–,–
"O=C(O)C1CCCC2c3sccc3CC(NC(=O)[C@@H](S)Cc3ccccc3)C(=O)N12 (stereo partly drawn) [Example B-8, 5-[(S)-2-Mercapto-1-oxo-3-phenylpropyl]amino-6-oxo-4,5,6,8,9,10,11,11a-octahydro[1,2-a]thieno-[2,3-c]azepine-8-carboxylic acid]",7.05,7.14,–,–,–,–,–
"O=C(N[C@H]1Cc2ccc(-c3ccccc3)cc2[C@H]2CCC[C@@H](C(=O)O)N2C1=O)[C@@H](S)Cc1ccccc1 [Example E-6, [4S-[4α,7α(R*),12bβ]]-7-[(S)-2-Mercapto-3-phenylpropionylamino]-6-oxo-11-phenyl-1,2,3,4,6,7,8,12b-octahydropyrido[2,1-a][2]benzazepine-4-carboxylic acid]",–,–,8.00,superior in oral absorbability to the comparative compound E-1,18.8%,24.6%,7.55
